From publication PMC6979384, “Characterization of the plant homeodomain (PHD) reader family for their histone tail interactions” (Epigenetics & Chromatin, 2020)
Where no end group is shown, it is not given here.

Legend:
Assay in all cases: Histone peptide microarray
Type in all cases: binding, human
[1] = system: KDM7A
How it was run: (§1)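 Steps: express and purify GST-tagged PHD reader; incubate 0.5 μM protein on a peptide microarray (293 histone peptides, single or combined PTMs) following an optimized protocol; average signal across 4 replicates.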

[2] = system: BAZ2B
How it was run: as §1

[3] = system: PHF23
How it was run: as §1

[4] = system: PHF13
How it was run: as §1

[5] = system: ING4
How it was run: as §1

[6] = system: MORC3 (CW)
How it was run: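 GST-tagged PHD readers, 0.5 μM, probed on a microarray of 293 synthetic histone peptides carrying single or combinatorial PTMs (optimized Petell protocol). Signals are averaged over 4 replicates and expressed as relative binding.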

[7] = system: TRIM66 (PB)
How it was run: as §1

[8] = system: ING3
How it was run: as §1

[9] = system: AIRE (PP)
How it was run: as §1

[10] = system: BPTF (PB)
How it was run: as §1

[11] = system: ING5
How it was run: as §1

[12] = system: KDM5B (3)
How it was run: as §1

[13] = system: PHF8
How it was run: as §1

[14] = system: DIDO1
How it was run: as §1

[15] = system: RAG2
How it was run: as §1

[16] = system: TAF3
How it was run: as §1

[17] = system: DPF2 (PPC2W2)
How it was run: as §1

[18] = system: PHF21A
How it was run: as §1

[19] = system: CHD4 (PPCC)
How it was run: as §1

[20] = system: PHF2
How it was run: as §1

[21] = system: KDM4C (TTP)
How it was run: as §1

[22] = system: CHD5 (PCC)
How it was run: as §1

[23] = system: KDM5A (1)
How it was run: as §1

[24] = system: MLL5
How it was run: as §1

[25] = system: SP140L
How it was run: as §1

[26] = system: KDM5B (1)
How it was run: as §1

[27] = system: PHRF1 (RP)
How it was run: as §1

[28] = system: ING1
How it was run: as §1

[29] = system: CHD5 (PPCC)
How it was run: as §1

[30] = system: KDM5A (3)
How it was run: as §1

[31] = system: ING2
How it was run: as §1

[32] = sheet "Array Heatmap", GST-tagged reader, histone peptide array, total n = 4

Substance: H3 (74-84) N-ac: H3 74-84 (Ac-IAQDFKTDLRF; UniProt P68431 75-85, looked up, fragment)
- Array Heatmap signal, KDM7A ([1]; GST-tagged KDM7A, histone peptide array, arrays performed twice, n of 4): 0.3521
- Array Heatmap signal, BAZ2B ([2]; GST-tagged BAZ2B, histone peptide array, arrays performed twice, n of 4): 0.4698
- Array Heatmap signal, PHF23 ([3]; GST-tagged PHF23, histone peptide array, arrays performed twice, n of 4): 0.5407
- Array Heatmap signal, PHF13 ([4]; GST-tagged PHF13, histone peptide array, arrays performed twice, n of 4): 0.618
- Array Heatmap signal, ING4 ([5]; GST-tagged ING4, histone peptide array, arrays performed twice, n of 4): 0.4711
- Array Heatmap signal, MORC3 (CW) ([6]; GST-tagged MORC3 (CW = CW-type Zn-finger), histone peptide array, arrays performed twice, n of 4): 0.4011
- Array Heatmap signal, TRIM66 (PB) ([7]; GST-tagged TRIM66 (PB = PHD + Bromodomain), histone peptide array, arrays performed twice, n of 4): 0.6043
- Array Heatmap signal, ING3 ([8]; GST-tagged ING3, histone peptide array, arrays performed twice, n of 4): 0.5027
- Array Heatmap signal, AIRE (PP) ([9]; GST-tagged AIRE (PP), histone peptide array, arrays performed twice, n of 4): 0.4661
- Array Heatmap signal, BPTF (PB) ([10]; GST-tagged BPTF (PB = PHD + Bromodomain), histone peptide array, arrays performed twice, n of 4): 0.3549
- Array Heatmap signal, ING5 ([11]; GST-tagged ING5, histone peptide array, arrays performed twice, n of 4): 0.3669
- Array Heatmap signal, KDM5B (3) ([12]; GST-tagged KDM5B (3), histone peptide array, arrays performed twice, n of 4): 0.4839
- Array Heatmap signal, PHF8 ([13]; GST-tagged PHF8, histone peptide array, arrays performed twice, n of 4): 0.3664
- Array Heatmap signal, DIDO1 ([14]; GST-tagged DIDO1, histone peptide array, arrays performed twice, n of 4): 0.7101
- Array Heatmap signal, RAG2 ([15]; GST-tagged RAG2, histone peptide array, arrays performed twice, n of 4): 0.2671
- Array Heatmap signal, TAF3 ([16]; GST-tagged TAF3, histone peptide array, arrays performed twice, n of 4): 0.2845
- Array Heatmap signal, DPF2 (PPC2W2) ([17]; GST-tagged DPF2 (PPC2W2 = Dual PHD + C2W2-type Zn-finger), histone peptide array, arrays performed twice, n of 4): 0.6686
- Array Heatmap signal, PHF21A ([18]; GST-tagged PHF21A, histone peptide array, arrays performed twice, n of 4): 0.4735
- Array Heatmap signal, CHD4 (PPCC) ([19]; GST-tagged CHD4 (PPCC = Dual PHD + Dual Chromodomain), histone peptide array, arrays performed twice, n of 4): 0.602
- Array Heatmap signal, PHF2 ([20]; GST-tagged PHF2, histone peptide array, arrays performed twice, n of 4): 0.5329
- Array Heatmap signal, KDM4C (TTP) ([21]; GST-tagged KDM4C (TTP = Tandem Tudor domain + PHD), histone peptide array, arrays performed twice, n of 4): 0.495
- Array Heatmap signal, CHD5 (PCC) ([22]; GST-tagged CHD5 (PCC = PHD + Dual Chromodomain), histone peptide array, arrays performed twice, n of 4): 0.8195
- Array Heatmap signal, KDM5A (1) ([23]; GST-tagged KDM5A (1), histone peptide array, arrays performed twice, n of 4): 0.4913
- Array Heatmap signal, MLL5 ([24]; GST-tagged MLL5, histone peptide array, arrays performed twice, n of 4): 0.5353
- Array Heatmap signal, SP140L ([25]; GST-tagged SP140L, histone peptide array, arrays performed twice, n of 4): 0.3545
- Array Heatmap signal, KDM5B (1) ([26]; GST-tagged KDM5B (1), histone peptide array, arrays performed twice, n of 4): 0.7009
- Array Heatmap signal, PHRF1 (RP) ([27]; GST-tagged PHRF1 (RP), histone peptide array, arrays performed twice, n of 4): 0.4448
- Array Heatmap signal, ING1 ([28]; GST-tagged ING1, histone peptide array, arrays performed twice, n of 4): 0.5586
- Array Heatmap signal, CHD5 (PPCC) ([29]; GST-tagged CHD5 (PPCC = Dual PHD + Dual Chromodomain), histone peptide array, arrays performed twice, n of 4): 0.5613
- Array Heatmap signal, KDM5A (3) ([30]; GST-tagged KDM5A (3), histone peptide array, arrays performed twice, n of 4): 0.4833
- Array Heatmap signal, ING2 ([31]; GST-tagged ING2, histone peptide array, arrays performed twice, n of 4): 0.6419

Substance: H3 (74-84): H3 74-84 (IAQDFKTDLRF; UniProt P68431 75-85, looked up, fragment)
- Array Heatmap signal, KDM7A [1, 32]: 0.4511
- Array Heatmap signal, BAZ2B [2, 32]: 0.5314
- Array Heatmap signal, PHF23 [3, 32]: 0.5211
- Array Heatmap signal, PHF13 [4, 32]: 0.6585
- Array Heatmap signal, ING4 [5, 32]: 0.5059
- Array Heatmap signal, MORC3 (CW) [6, 32]: 0.3965
- Array Heatmap signal, TRIM66 (PB) [7, 32]: 0.6388
- Array Heatmap signal, ING3 [8, 32]: 0.4892
- Array Heatmap signal, AIRE (PP) [9, 32]: 0.5836
- Array Heatmap signal, BPTF (PB) [10, 32]: 0.3631
- Array Heatmap signal, ING5 [11, 32]: 0.3977
- Array Heatmap signal, KDM5B (3) [12, 32]: 0.5142
- Array Heatmap signal, PHF8 [13, 32]: 0.3649
- Array Heatmap signal, DIDO1 [14, 32]: 0.6796
- Array Heatmap signal, RAG2 [15, 32]: 0.2597
- Array Heatmap signal, TAF3 [16, 32]: 0.2746
- Array Heatmap signal, DPF2 (PPC2W2) [17, 32]: 0.6874
- Array Heatmap signal, PHF21A [18, 32]: 0.5055
- Array Heatmap signal, CHD4 (PPCC) [19, 32]: 0.6103
- Array Heatmap signal, PHF2 [20, 32]: 0.4839
- Array Heatmap signal, KDM4C (TTP) [21, 32]: 0.5485
- Array Heatmap signal, CHD5 (PCC) [22, 32]: 0.8536
- Array Heatmap signal, KDM5A (1) [23, 32]: 0.5057
- Array Heatmap signal, MLL5 [24, 32]: 0.5674
- Array Heatmap signal, SP140L [25, 32]: 0.3639
- Array Heatmap signal, KDM5B (1) [26, 32]: 0.6254
- Array Heatmap signal, PHRF1 (RP) [27, 32]: 0.4358
- Array Heatmap signal, ING1 [28, 32]: 0.527
- Array Heatmap signal, CHD5 (PPCC) [29, 32]: 0.6043
- Array Heatmap signal, KDM5A (3) [30, 32]: 0.4265
- Array Heatmap signal, ING2 [31, 32]: 0.5988

Substance: H3.3 15-34: H3.3 15-34
- Array Heatmap signal, KDM7A ([1]; sheet "Array Heatmap", GST-tagged KDM7A, arrays performed twice, total replicate number n = 4): 0.5038
- Array Heatmap signal, BAZ2B ([2]; sheet "Array Heatmap", GST-tagged BAZ2B, arrays performed twice, total replicate number n = 4): 0.5105
- Array Heatmap signal, PHF23 ([3]; sheet "Array Heatmap", GST-tagged PHF23, arrays performed twice, total replicate number n = 4): 0.5121
- Array Heatmap signal, PHF13 ([4]; sheet "Array Heatmap", GST-tagged PHF13, arrays performed twice, total replicate number n = 4): 0.6359
- Array Heatmap signal, ING4 ([5]; sheet "Array Heatmap", GST-tagged ING4, arrays performed twice, total replicate number n = 4): 0.4948
- Array Heatmap signal, MORC3 (CW) ([6]; sheet "Array Heatmap", GST-tagged MORC3 (CW), arrays performed twice, total replicate number n = 4): 0.367
- Array Heatmap signal, TRIM66 (PB) ([7]; sheet "Array Heatmap", GST-tagged TRIM66 (PB), arrays performed twice, total replicate number n = 4): 0.563
- Array Heatmap signal, ING3 ([8]; sheet "Array Heatmap", GST-tagged ING3, arrays performed twice, total replicate number n = 4): 0.4684
- Array Heatmap signal, AIRE (PP) ([9]; sheet "Array Heatmap", GST-tagged AIRE (PP), arrays performed twice, total replicate number n = 4): 0.5768
- Array Heatmap signal, BPTF (PB) ([10]; sheet "Array Heatmap", GST-tagged BPTF (PB), arrays performed twice, total replicate number n = 4): 0.3589
- Array Heatmap signal, ING5 ([11]; sheet "Array Heatmap", GST-tagged ING5, arrays performed twice, total replicate number n = 4): 0.3926
- Array Heatmap signal, KDM5B (3) ([12]; sheet "Array Heatmap", GST-tagged KDM5B (3), arrays performed twice, total replicate number n = 4): 0.5078
- Array Heatmap signal, PHF8 ([13]; sheet "Array Heatmap", GST-tagged PHF8, arrays performed twice, total replicate number n = 4): 0.386
- Array Heatmap signal, DIDO1 ([14]; sheet "Array Heatmap", GST-tagged DIDO1, arrays performed twice, total replicate number n = 4): 0.6133
- Array Heatmap signal, RAG2 ([15]; sheet "Array Heatmap", GST-tagged RAG2, arrays performed twice, total replicate number n = 4): 0.2498
- Array Heatmap signal, TAF3 ([16]; sheet "Array Heatmap", GST-tagged TAF3, arrays performed twice, total replicate number n = 4): 0.298
- Array Heatmap signal, DPF2 (PPC2W2) ([17]; sheet "Array Heatmap", GST-tagged DPF2 (PPC2W2), arrays performed twice, total replicate number n = 4): 0.6732
- Array Heatmap signal, PHF21A ([18]; sheet "Array Heatmap", GST-tagged PHF21A, arrays performed twice, total replicate number n = 4): 0.4988
- Array Heatmap signal, CHD4 (PPCC) ([19]; sheet "Array Heatmap", GST-tagged CHD4 (PPCC), arrays performed twice, total replicate number n = 4): 0.5508
- Array Heatmap signal, PHF2 ([20]; sheet "Array Heatmap", GST-tagged PHF2, arrays performed twice, total replicate number n = 4): 0.4208
- Array Heatmap signal, KDM4C (TTP) ([21]; sheet "Array Heatmap", GST-tagged KDM4C (TTP), arrays performed twice, total replicate number n = 4): 0.5726
- Array Heatmap signal, CHD5 (PCC) ([22]; sheet "Array Heatmap", GST-tagged CHD5 (PCC), arrays performed twice, total replicate number n = 4): 0.807
- Array Heatmap signal, KDM5A (1) ([23]; sheet "Array Heatmap", GST-tagged KDM5A (1), arrays performed twice, total replicate number n = 4): 0.5272
- Array Heatmap signal, MLL5 ([24]; sheet "Array Heatmap", GST-tagged MLL5, arrays performed twice, total replicate number n = 4): 0.5484
- Array Heatmap signal, SP140L ([25]; sheet "Array Heatmap", GST-tagged SP140L, arrays performed twice, total replicate number n = 4): 0.3703
- Array Heatmap signal, KDM5B (1) ([26]; sheet "Array Heatmap", GST-tagged KDM5B (1), arrays performed twice, total replicate number n = 4): 0.7186
- Array Heatmap signal, PHRF1 (RP) ([27]; sheet "Array Heatmap", GST-tagged PHRF1 (RP), arrays performed twice, total replicate number n = 4): 0.4107
- Array Heatmap signal, ING1 ([28]; sheet "Array Heatmap", GST-tagged ING1, arrays performed twice, total replicate number n = 4): 0.5055
- Array Heatmap signal, CHD5 (PPCC) ([29]; sheet "Array Heatmap", GST-tagged CHD5 (PPCC), arrays performed twice, total replicate number n = 4): 0.5888
- Array Heatmap signal, KDM5A (3) ([30]; sheet "Array Heatmap", GST-tagged KDM5A (3), arrays performed twice, total replicate number n = 4): 0.4324
- Array Heatmap signal, ING2 ([31]; sheet "Array Heatmap", GST-tagged ING2, arrays performed twice, total replicate number n = 4): 0.6004
